# Laboratory results reported in PMC9785921, “Evaluation of Chiral Organosulfur Compounds on Their Activity against the Malaria Parasite Plasmodium falciparum” (Tropical Medicine and Infectious Disease, 2022).
# Read-outs that look alike come from different tables or passages of the source.
# Experiments:
# P. falciparum 3D7 strain = test: Malstat assay, asexual blood stages, CQ-sensitive strain 3D7; assay type: cell-based; details: Plasmodium falciparum; for IC50: read-out: IC50 (µM) CQ-Sensitive Strain 3D7; for IC90: 90% inhibitory concentration estimated from the IC50
# Experimental: (§1) Three P. falciparum strains were used for compound testing; a strain sensitive to chloroquine (CQ) 3D7, CQ-resistant strain Dd2 and P. falciparum gametocyte producing NF54 strain. The 3D7 and Dd2 strains were used to investigate the effect of the compounds on asexual blood stage replication. They were cultured in RPMI 1640/HEPES medium (Gibco, Thermo Scientific, Waltham, MA, USA) containing 10 µg/mL gentamicin (Gibco Thermo Scientific, Waltham, MA, USA,), 50 µg/mL hypoxanthine (Sigma-Aldrich, St. Louis, MO, USA), 0.5% v/v Albumax II (Gibco, Thermo Scientific, Waltham, MA, USA) and 5% hematocrit. Cultures were maintained at 37 °C using a gas mixture containing 5% CO2, 5% O2 and 90% N2. […] To obtain highly synchronized cultures, parasite cultures consisting mainly of ring stages were centrifuged, the pellet was resuspended in 10 mL of 5% w/v sorbitol/ddH20 and incubated for 10 min at room temperature. After washing the cells with RPMI to remove residual sorbitol, they were again cultivated, as described above. Erythrocyte concentrate and serum samples were obtained from the Department of Transfusion Medicine, University Hospital Aachen, Germany. The serum samples were mixed and pooled and donors were kept anonymous. The work with blood components from humans was approved by the Ethics commission of the RWTH University Hospital (EK 007/13).
# (§2) The antiplasmodial effect of the compounds on P. falciparum asexual blood stage development was carried out using the Malstat assay, as described previously. Compounds dissolved in dimethyl sulfoxide (DMSO) were added to 1% ring stage P. falciparum 3D7 and Dd2 cultures (200 µL/well) in a 96-well plate in triplicate at final concentrations ranging from 100 µM to 0.78 µM. […] CQ at concentrations ranging from 500 nM to 4 nM was used as an internal control in the experiments, while parasites treated with 0.5% v/v DMSO served as the negative control. The parasites were cultured with the compounds for 72 h at 37 °C in the presence of the following gas combination: 5% O2, 5% CO2, and 90% N2. Afterwards, 20 µL of the incubated culture was removed and 100 µL of Malstat reagent (0.1% v/v Triton X-100, 1 g of L-lactate, 0.33 g Tris and 33 mg of 3-acetylpyridine adenine dinucleotide in 100 mL of distilled water, pH 9.0) was added in a new 96-well microtiter plate. Next, 20 µL mixture of NBT/Diaphorase (1:1; 1 mg/mL stock each) was added to the Malstat reaction and the parasite lactate dehydrogenase activity was then quantified by measuring the optical densities at 630 nm. IC50 values were then determined from variable-slope sigmoidal dose-response graphs using the GraphPad Prism program version 5 (GraphPad Software Inc., La Jolla, San Diego, CA, USA).
# [1] = test system: P. falciparum NF54 gametocytes; test: Gametocyte toxicity test; assay type: cell-based, Plasmodium falciparum; details: 48 h treatment, then 7 d drug-free; for reduction of mature gametocyte numbers (in words) / reduction of mature gametocyte numbers: compound at IC50 concentration; for reduction in stage IV and V gametocyte numbers: compound at IC90 concentration
# Experimental: as §1
# P. falciparum NF54 parasites were cultured at high parasitemia to induce gametocyte formation. Once stage II gametocytes appeared, 1 mL of culture was aliquoted in triplicate in a 24-well plate with compounds at the respective IC50 and IC90 concentrations that was determined from Malstat assay. The gametocytes were again cultivated for 9 d with the daily replacement of medium. For the first 48 h of cultivation, the gametocytes were treated with test compounds, and subsequently compound free medium was used. On day 9, blood smears were prepared and stained with Giemsa and the gametocytemia was determined by counting the numbers of gametocytes stages IV and V in a total number of 1000 erythrocytes.
# Figure 3 Effect of organosulfur compounds on gametocyte development. Cultures rich in stage II gametocyte were incubated with compounds at IC50 and IC90 concentrations for 2 d, and again cultivated for another 7 d with daily replacement of medium. The numbers of stage IV and V gametocytes were determined from Giemsa smears and normalized to 0.5% v/v DMSO treatment which served as negative control (set to 100%). Epoxomicin (Epoxo) at 60 nM served as positive control.
# [2] = test system: non-infected erythrocytes; test: Hemolytic assay; assay type: cell-based, human; details: IC50 and IC90 concentrations, 48 h, 37 °C, compared with 0.5% v/v DMSO
# Experimental: Since the malaria parasite replicates in the red blood cell, we determined if the compounds have an effect on non-infected erythrocytes using hemolytic assays. To this end, 1 mL of washed uninfected erythrocytes at 5% hematocrit in regular medium was plated in triplicate in a 96-well plate (200 µL/well) in the presence of compounds at IC50 and IC90 concentrations. Erythrocytes treated with 0.15% w/v saponin were used as lysis control and 0.5% v/v DMSO was used as the negative control. Following 48 h of incubation at 37 °C, the plate was centrifuged at 500× g for 2 min and 100 µL of the supernatant was transferred to another plate and the absorbance was measured at 550 nm with a spectrophotometer.
# (§3) Figure 4 Hemolytic and cytotoxic effect of compounds. (a) Hemolytic effect of compounds. […] The absorbance of free hemoglobin was measured at OD550 nm in the supernatant and normalized to 0.15% w/v saponin (set to 100%), which served as positive control in the experiments. 0.5% v/v DMSO was used as negative control. (b) Cytotoxicity effect of compounds on Hela cells. The cells were plated in 96-well microtiter plates and cultured overnight at 37 °C. The following day, the old medium was removed and 100 µL of fresh medium containing serially diluted compounds in corresponding wells at final concentrations ranging from 100 µM to 0.8 µM was added and the culture was incubated for 72 h. After incubation, the medium was replaced by 100 µL fresh drug-free medium and 20 µL MTT (5 mg/mL) was added in each well and incubated for 3 h at 37 °C. After 3 h, the MTT preparation was then removed from each well and 100 µL solubilization solution was added. Plates were then placed on a rotator at about 500 rpm at RT until the formazan precipitate was completely resuspended and the OD was measured at 450 nm. The data are representative of three independent experiments.
# [3] = MTT cytotoxicity assay, Hela cells; assay type: cell-based; details: human, Hela cells (human cervical cancer cell line); for viability at 72 h: about 25 µM
# Experimental: The MTT [3-(4,5-dimethylthiazol-2-yl)-2,5-diphenyltetrazolium bromide] assay was performed using the human cervical cancer cell (Hela) line and the hematologic malignancy human erythroleukemia (HEL) cell line to determine if the compounds were toxic (loss of viability) against human cells. MTT is taken up by viable cells and converted by mitochondrial dehydrogenases to a violet formazan product that cannot diffuse through cell membranes, and therefore crystallizes in viable cells. The adherent Hela cells were plated in 96-well microtiter plates and cultured at 37 °C overnight. Compounds were added to the cultures in different serial concentrations in triplicate the next day, and the cells were incubated for 72 h. DMSO was used as the negative control at a final concentration of 0.5% v/v, and a concentration of 15% v/v DMSO which is toxic was added as the positive control. After 72 h of drug treatment, medium-containing drug was replaced with 100 µL fresh drug-free medium. Then, 20 µL MTT (5 mg/mL) was added to each well and incubated for 3 h at 37 °C. The medium was subsequently removed and 100 µL solubilization solution (5% w/v SDS, 0.1 M HCl in 100% vol. DMSO) was added and incubated for 30 min under rotation at room temperature to solubilize the formazan crystals.
# For both cell lines, the optical density (OD) of the solution was measured at 550 nm. The OD-values of cultures treated with compounds were normalized to the OD-values of 0.5% v/v DMSO control (set to 100% viability for Hela or 1 for HEL cell line). IC50 values were calculated from MTT assays using Graphpad Prism (V9).
# as §3
# P. falciparum Dd2 strain = test: Malstat assay, asexual blood stages, CQ-resistant strain Dd2; assay type: cell-based; details: Plasmodium falciparum, read-out: IC50 (µM) CQ-Resistant Strain Dd2
# Experimental: as §1, §2
# [4] = 3D7, ring stage parasites, 72 h, Malstat (plasmodial LDH)
# [5] = DD2, ring stage parasites, 72 h, Malstat
smiles,measurement,setting,value
O=[N+]([O-])c1ccc2c(c1)C=C(c1ccccc1)N=S2(=O)N1CCCCCC1 (centres unmarked) [Compound 14],IC50,P. falciparum 3D7 strain; [4],10.3 ± 0.9 µM
O=[S@@]1(c2ccccc2)=Nc2ccccc2-c2ncc3ccccc3c21 [Compound 23],IC50,P. falciparum 3D7 strain; [4],24.9 ± 1.06 µM
CN1CCC[C@H](NC(=S)Nc2cc(C(F)(F)F)cc(C(F)(F)F)c2)C1 [Compound 20],IC50,P. falciparum 3D7 strain; [4],8 ± 0.53 µM
O=S1(N2CCCCCC2)=NC(c2ccc(Br)cc2)=Cc2ccccc21 (centres unmarked) [Compound 6],IC50,P. falciparum 3D7 strain; [4],10.6 ± 1.53 µM
O=S1(N2CCCCCC2)=NC(c2ccccc2)=Cc2ccccc21 (centres unmarked) [Compound 10],IC50,P. falciparum 3D7 strain; [4],46.4 ± 2.67 µM
Cc1ccc2c(c1)C=C(c1ccccc1)N=S2(=O)N1CCCCCC1 (centres unmarked) [Compound 12],IC50,P. falciparum 3D7 strain; [4],21.3 ± 4.05 µM
CCOC(=O)C1=C(c2cccs2)N=S(=O)(N2CCCCCC2)c2c1cc1ccccc1c2Cl (centres unmarked) [Compound 4],IC50,P. falciparum 3D7 strain; [4],9.1 ± 2.59 µM
Cc1cccc2c1S(=O)(N1CCCCCC1)=NC(c1ccc(Br)cc1)=C2 (centres unmarked) [Compound 8],IC50,P. falciparum 3D7 strain; [4],12.5 ± 3.27 µM
O=S1(c2ccc(Br)cc2)=NC(c2ccccc2)=CC(c2ccc(Cl)cc2)=N1 (centres unmarked) [Compound 3],IC50,P. falciparum 3D7 strain; [4],22.1 ± 1.06 µM
CCOC(=O)C1=C(C)N=S2(=NC(c3ccccc3)=CC(c3ccccc3)=C2)c2ccccc21 (centres unmarked) [Compound 1],IC50,P. falciparum 3D7 strain; [4],3.8 ± 0.66 µM
same,IC90,P. falciparum 3D7 strain; 3D7,34.2 µM
same,reduction of mature gametocyte numbers (in words),[1],only minor reduction
same,reduction in stage IV and V gametocyte numbers,[1],very high reduction
same,hemolytic effect,[2],no hemolytic effect
same,"viability at 72 h, 50 µM",[3],> 60%
same,viability at 72 h,[3],> 90%
CCOC(=O)C1=C(c2cccs2)N=S(=O)(N2CCCCCC2)c2c(C)cccc21 (centres unmarked) [Compound 7],IC50,P. falciparum 3D7 strain; [4],35.8 ± 5.11 µM
CCOC(=O)C1=C(c2ccc(C)cc2)N=S(=O)(N2CCCCCC2)c2ccccc21 (centres unmarked) [Compound 16],IC50,P. falciparum Dd2 strain; [5],4.4 ± 0.59 µM
same,IC50,P. falciparum 3D7 strain; [4],3.1 ± 0.26 µM
same,IC90,P. falciparum 3D7 strain; 3D7,27.9 µM
same,reduction of mature gametocyte numbers,[1],about 50%
same,hemolytic effect,[2],no hemolytic effect
same,"viability at 72 h, 50 µM",[3],> 60%
same,viability at 72 h,[3],> 90%
CCOC(=O)C1=C(c2cccs2)N=S(=O)(N2CCCCCC2)c2ccccc21 (centres unmarked) [Compound 19],IC50,P. falciparum 3D7 strain; [4],31.5 ± 4.9 µM
CCOC(=O)C1=C(C)N=S(=O)(N2CCCCCC2)c2ccc([N+](=O)[O-])cc21 (centres unmarked) [Compound 15],IC50,P. falciparum 3D7 strain; [4],5.2 ± 1.95 µM
same,IC90,P. falciparum 3D7 strain; 3D7,46.8 µM
same,reduction of mature gametocyte numbers (in words),[1],only minor reduction
same,reduction in stage IV and V gametocyte numbers,[1],very high reduction
same,hemolytic effect,[2],no hemolytic effect
same,"viability at 72 h, 50 µM",[3],> 60%
same,viability at 72 h,[3],> 90%
CC(C)[C@@H](CN=[S@@](C)(=O)c1ccccc1)NC(=S)Nc1cc(C(F)(F)F)cc(C(F)(F)F)c1 [Compound 22],IC50,P. falciparum 3D7 strain; [4],15.9 ± 1.46 µM
CCOC(=O)C1=C(C)N=S2(=NC(c3ccccc3)=CC(c3ccc(Cl)cc3)=C2)c2ccccc21 (centres unmarked) [Compound 2],IC50,P. falciparum 3D7 strain; [4],3.12 ± 0.58 µM
same,IC90,P. falciparum 3D7 strain; 3D7,27.9 µM
same,reduction of mature gametocyte numbers (in words),[1],only minor reduction
same,reduction in stage IV and V gametocyte numbers,[1],very high reduction
same,hemolytic effect,[2],no hemolytic effect
same,"viability at 72 h, 50 µM",[3],> 60%
same,viability at 72 h,[3],> 90%
CC(C)(C)c1ccc2c(c1)C=C(c1ccccc1)N=S2(=O)N1CCCCCC1 (centres unmarked) [Compound 9],IC50,P. falciparum Dd2 strain; [5],6.5 ± 0.87 µM
same,IC50,P. falciparum 3D7 strain; [4],3.3 ± 1.56 µM
same,IC90,P. falciparum 3D7 strain; 3D7,29.7 µM
same,reduction of mature gametocyte numbers,[1],about 50%
same,hemolytic effect,[2],no hemolytic effect
same,"viability at 72 h, 50 µM",[3],> 60%
same,viability at 72 h,[3],> 90%
CCOC(=O)C1=C(C)N=S(=O)(N2CCCCCC2)c2ccc(C)cc21 (centres unmarked) [Compound 11],IC50,P. falciparum 3D7 strain; [4],12 ± 4.28 µM
CCOC(=O)C1=C(c2ccccc2)N=S(=O)(N2CCCCCC2)c2ccccc21 (centres unmarked) [Compound 18],IC50,P. falciparum 3D7 strain; [4],26.5 ± 1.19 µM
CC(C)C[C@@H](CN=[S@](C)(=O)c1ccccc1)NC(=S)Nc1cc(C(F)(F)F)cc(C(F)(F)F)c1 [Compound 21],IC50,P. falciparum 3D7 strain; [4],14.1 ± 1.5 µM
"CCN(CC)CCCC(C)Nc1ccnc2cc(Cl)ccc12 (centres unmarked) [Chloroquine, reference compound]",IC50,"P. falciparum Dd2 strain; DD2, 72 h",0.14 ± 0.063 µM
same,IC50,"P. falciparum 3D7 strain; 3D7, 72 h",0.02 ± 0.004 µM
O=S1(N2CCCCCC2)=NC(c2ccccc2)=Cc2cccc(Cl)c21 (centres unmarked) [Compound 13],IC50,P. falciparum 3D7 strain; [4],20.3 ± 1.69 µM
